Marks after values point to notes of the source that are not given here.
Key:
Type in all cases: binding, rabbit
1,7-DMU-Ab = experiment: Competitive antigen ELISA, antibody specificity of 1,7-DMU-Ab; details: hypothesized ideal antibody specificity; 0 = no inhibition or no higher than 40% at 5×10^−3 M
Experimental: (§1) Competitive Antigen ELISA
(§2) BSA, antibodies, Tween™ 20 and horse radish peroxidase are added to buffers and water just prior to use. Urine samples are usually collected four hours after drinking a cup of coffee (instant or brewed with approximately 100 mg of caffeine per cup) and stored at −20° C. as 1-mL aliquots in 1.5-mL microtubes. For the ELISA, the urine samples are diluted with isotonic sodium phosphate buffer, pH 7.5 (310 mosM) to give concentrations of caffeine, 1.7-DMX and 1,7-DMU no higher than 3×10^−6 M in the microtiter plate wells. Wells of the ELISA plate are washed with a Nunc-Immuno wash 12 washer. Sixteen milliliters of a solution of 6.6 μg ml^−1 of isolated IgG antibodies is prepared in a 100 mM sodium carbonate buffer, pH 9.6, and 150 μL of this solution is pipetted in each well of a microtiter plate using a eight channel pipet (Brinkmann Transferpette™-8 50-200 μL) and 200 μL Flex tips from Brinkmann). After coating the wells with antibodies at 4° C. for 20 hours, the wells are washed 3 times with the isotonic sodium phosphate buffer containing 0.05% Tween™ 20 (IPBT) and properly drained by inverting the plate and absorbing the liquid on to a piece of paper towel. Thirty milliliters of a solution of a IPBT solution containing 1% BSA is prepared and 150 μL of this solution is pipetted in each well using a eight channel pipet (Brinkmann Transferpet-te™-8 50-200 μL) and 200 μL yellow tips (Sarstedt yellow tips for P200 Gilson Pipetman). After 3 hours at room temperature, the wells are washed 3 times with IPBT solution and drained. Samples of 400 μL for determination of caffeine, 1,7-DMX and 1,7-DMU are prepared in 1.5-mL microtubes using Sarstedt yellow tips and a P200 Gilson Pipetman. Then, 200 μL of each sample are pipetted in duplicate in a Falcon 96-well microtest tissue culture plate according to the pattern shown in FIG. 23, using Sarstedt yellow tips and a P200 Gilson Pipetman. Using an eight channel pipet (Brinkmann Transferpette™-8 50-200 μL) and changing the tips of the eight channel pipet (200 μL Flex tips from Brinkmann) at each row, 150 μL of samples are transferred in the corresponding wells of a 96-well ELISA microtiter plate coated with antibodies. After the addition of the samples, the microtiter plates are covered and left standing at room temperature for 2 h. While the plate is left standing the substrate buffer without the hydrogen peroxide and o-phenylenediamine hydrochloride is prepared (25 mM citric acid and 50 mM sodium phosphate dibasic buffer, pH 5.0). The microtiter plate is washed 3 times with the IPBT solution and 3 times with a 0.05% Tween 20 solution and drained. Then, 50 […] of hydrogen peroxide and 40 mg of o-phenylenediamine are added to the substrate buffer. One hundred fifty microliters (150 μL) of the substrate buffer solution is then added to each well using a eight channel pipet (Brinkmann Transferpette™-8 50-200 μL) and 200 μL Flex tips (Brinkmann). The microtiter plate is covered and shaken for 25-30 min at room temperature and the enzymatic reaction is stopped by adding 50 μL/well of a 2.5 N HCl solution using an eight channel pipet (Brinkmann Transferpette™-8 50-200 μL) and 200 μL Flex tips (Brinkmann).

1X-Ab = experiment: Competitive antigen ELISA, cross-reactivity of 1X-Ab; details: for % Cross-Reaction 1X-Ab: competitive antigen ELISA, 0 = absence of inhibition or inhibition no higher than 40% at the highest concentration tested (5×10^−3 M)
Experimental: as §1
(§3) Buffers and water without additives are filtered through millipore filters and kept for 1 week. BSA, antibodies, Tween™ 20 and horse radish peroxidase conjugates are added to these buffers and water just prior to use. Urine samples are usually collected 4 hours after drinking a cup of coffee (instant or brewed with approximately 100 mg of caffeine per cup) and stored at −80° C. The urine samples are diluted 10 times with sodium phosphate buffer (620 mosm, pH 7.50) and are subsequently diluted with water to give concentrations of AAMU and 1X no higher than 3×10^−6 M in the ELISA. All the pipettings are done with an eight-channel pipette, except those of the antibody and sample solutions. Starting with the last well, 100 μL of a carbonate buffer (100 mM, pH 9.6) containing 2.5 μg mL-1 antibodies are added to each well. After 90 min. at room temperature, the wells are washed three times with 100 mL of TPB: isotonic sodium phosphate buffer (310 mosm, pH 7.50) containing 0.05% Tween™ 20.
(§4) After the initial wash, unoccupied sites are blocked by incubation for 90 min. at room temperature with 100 μL TBP containing 3% BSA. The wells are washed four times with 100 […] TPB. […] The microplate is gently shaken with an orbital shaker at room temperature for 3-4 hours. The wells are washed three times with 100 μL TPB containing 1% BSA and three times with water containing 0.05% Tween™ 20. To the washed plate is added 150 μL of a substrate buffer composed of citric acid (25 mM) and sodium phosphate dibasic buffer (50 mM, pH 5.0) containing 0.06% hydrogen peroxide and 0.04% o-phenylenediamine hydrochloride.
as §3, with “were” for “are”, “They were” for “The urine samples are”, “mL^−1” for “mL-1”, “was pipetted.” for “are added to each well.”, “μL” for “mL”
(§5) After the initial wash, unoccupied sites were blocked by incubation for 90 min. at room temperature with 100 μL TBP containing 3% BSA. The wells were washed four times with 100 μL TPB. […] The microplate was gently shaken with an orbital shaker at room temperature for 3-4 hours. The wells were washed three times with 100 μL with TPB containing 1% BSA and three times with water containing 0.05% Tween™ 20. To the washed plate was added 150 μL of a substrate buffer composed of citric acid (25 mM) and sodium phosphate dibasic buffer (50 mM, pH 5.0) containing 0.06% hydrogen peroxide and 0.04% o-phenylenediamine hydrochloride. After 20 min. at room temperature with shaking, the reaction was stopped with 50 μL of 2.5 N HCl.
(§6) The cross reactivities of AAMU-Ab and 1X-Ab were tested using a wide variety of caffeine metabolites and structural analogs (Table 2 below).

Caffeine-Ab = experiment: Competitive antigen ELISA, antibody specificity of caffeine-Ab; details: hypothesized ideal antibody specificity; 0 = no inhibition or no higher than 40% at 5×10^−3 M
Experimental: as §1, §2

AAMU-Ab = experiment: Competitive antigen ELISA, cross-reactivity of AAMU-Ab; details: for % Cross-Reaction AAMU-Ab: competitive antigen ELISA, 0 = absence of inhibition or inhibition no higher than 40% at the highest concentration tested (5×10^−3 M)
Experimental: as §1, §3, §4
as §3, with “were” for “are”, “They were” for “The urine samples are”, “mL^−1” for “mL-1”, “was pipetted.” for “are added to each well.”, “μL” for “mL”
as §5, §6

1,7-DMX-Ab = experiment: Competitive antigen ELISA, antibody specificity of 1,7-DMX-Ab; details: hypothesized ideal antibody specificity; 0 = no inhibition or no higher than 40% at 5×10^−3 M
Experimental: as §1, §2

Structure (SMILES) | % Cross-reaction 1,7-DMU-Ab (1,7-DMU-Ab) | % Cross-Reaction 1X-Ab (1X-Ab) | % Cross-reaction Caffeine-Ab (Caffeine-Ab) | % Cross-Reaction AAMU-Ab (AAMU-Ab) | % Cross-reaction 1,7-DMX-Ab (1,7-DMX-Ab) | IC50 (1X-Ab; read-out: concentration required for 50% inhibition in the competitive antigen ELISA, 1X-Ab) | IC50 (AAMU-Ab; read-out: concentration required for 50% inhibition in the competitive antigen ELISA, AAMU-Ab)
O=c1[nH]c(=O)c2[nH]c(=O)[nH]c2[nH]1 [Uric acid] | 0% | 0% | 0% | 0% | 0% | – | –
Cn1c(=O)c2[nH]c(=O)[nH]c2n(C)c1=O [1,3-Dimethyluric acid] | 0% | – | 0% | – | 0% | – | –
O=c1cc[nH]c(=O)[nH]1 [Uracil] | 0% | 0% | 0% | 0% | 0% | – | –
Cn1c(=O)c2c([nH]c(=O)n2C)n(C)c1=O [1,3,7-Trimethyluric acid] | 0% | – | 0% | – | 0% | – | –
Cn1c(=O)[nH]c2[nH]c(=O)[nH]c(=O)c21 [7-Methyluric acid] | 0% | – | 0% | – | 0% | – | –
Cn1c(=O)[nH]c2ncn(C)c2c1=O [1,7-Dimethyl Xanthine (Paraxanthine), 1,7-dimethylxanthine] | 0% | 0.5% | 0% | 0% | 100% | – | –
Cn1c(=O)[nH]c(=O)c2[nH]c(=O)[nH]c21 [3-Methyluric acid] | 0% | – | 0% | – | 0% | – | –
Cn1c(=O)c2[nH]cnc2n(C)c1=O [1,3-Dimethyl Xanthine (Theophylline), 1,3-Dimethyl Xanthine] | 0% | 0.2% | 0% | 0% | 0% | – | –
Cn1c(=O)[nH]c(=O)c2[nH]cnc21 [3-Methyl Xanthine] | 0% | 0% | 0% | 0% | 0% | – | –
CC(=O)Nc1c(N)n(C)c(=O)n(C)c1=O [5-Acetamino-6-amino-1,3-dimethyluracil] | 0% | 0% | 0% | 0% | 0% | – | –
Cc1nc2[nH]c(=O)[nH]c(=O)c2[nH]1 [8-Methyl Xanthine] | 0% | 0% | 0% | 0% | 0% | – | –
Nc1nc2nc[nH]c2c(=O)[nH]1 [Guanine] | 0% | 0% | 0% | 0% | 0% | – | –
CC(=O)Nc1c(N)[nH]c(=O)[nH]c1=O [5-Acetamino-6-amino-uracil] | 0% | 0% | 0% | 0.6% | 0% | – | –
Cn1c(=O)[nH]c2[nH]c(=O)[nH]c2c1=O [1-Methyluric acid, 1-methyluric acid] | 0% | 11% | 0% | 0% | 0% | – | –
Cn1c(=O)[nH]c2nc[nH]c2c1=O [1-Methyl Xanthine (1X), 1-methylxanthine] | 0% | 100% | 0% | 0% | 0% | 10 µM | –
O=c1[nH]cnc2nc[nH]c12 [Hypoxanthine] | 0% | 0% | 0% | 0% | 0% | – | –
CC(=O)Nc1c(N)n(C)c(=O)[nH]c1=O [5-acetamino-6-amino-1-methyluracil] | 0% | 0% | 0% | 100% | 0% | – | 1.5 µM
Cn1c(=O)c2c(ncn2C)n(C)c1=O [1,3,7-Trimethyl Xanthine (Caffeine), 1,3,7-trimethylxanthine] | 0% | 0% | 100% | 0% | 0^a % | – | –
O=c1[nH]c(=O)c2[nH]cnc2[nH]1 [Xanthine] | 0% | 0% | 0% | 0^a % | 0% | – | –
Cn1cnc2c1c(=O)[nH]c(=O)n2C [3,7-Dimethyl Xanthine (Theobromine), 3,7-Dimethyl Xanthine] | 0% | 0% | 0% | 0% | 0% | – | –
Cn1c(=O)[nH]c(=O)c2c1[nH]c(=O)n2C [3,7-Dimethyluric acid] | 0% | – | 0% | – | 0% | – | –

Source: US20030190671A1, “Use of metabolic phenotyping in individualized treatment with amonafide” (McGill University, priority 2001, published 2003)
